Measured values taken from US11286268B1, “EIF4E-inhibiting compounds and methods” (EFFECTOR THERAPEUTICS, INC., priority 2019, dated 2022).
Read-outs that look alike come from different tables or passages of the source.

Biological target: recombinant eIF4E (Homo sapiens (Human), UniProt P06730)
Experiment: Fluorescence polarization competition assay for eIF4E binding potency
Procedure, shortened: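 Competition of test compound against 20 nM EDA-m^7GDP-ATTO-550 for 75 nM recombinant eIF4E, pre-incubated 5 min, in 20 mM Tris pH 7.5, 100 mM NaCl, 1 mM DTT, 0.02% Tween-20, 1% DMSO. Equilibrated 30 min at room temperature, dark; fluorescence polarization read. IC50 from 8-point, 3-fold dilution series.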

[1] = fluorescence polarization competition, 75 nM recombinant eIF4E, 20 nM EDA-m7GDP-ATTO-550, IC50 class, read-out: elF4E FP
[2] = inhibition of eIF4E/EDA-m7GDP-ATTO-550 binding by 50%, Table 4B calculated values, read-out: IC50

Sequence of recombinant eIF4E (P06730 whole entry): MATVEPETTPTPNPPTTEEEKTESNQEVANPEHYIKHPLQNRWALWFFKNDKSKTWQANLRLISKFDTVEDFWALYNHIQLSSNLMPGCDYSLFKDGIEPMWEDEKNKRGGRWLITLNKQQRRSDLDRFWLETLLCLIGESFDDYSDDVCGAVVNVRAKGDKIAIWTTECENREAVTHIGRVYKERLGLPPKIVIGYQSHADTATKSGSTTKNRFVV

SMILES | IC50 [1] [nM] | IC50 [2] [nM]
Cc1cc(-c2cc(Cl)ccc2OCCn2c(C)nc3c(C)nc(N4CCN(C)CC4)c(C#N)c3c2=O)c2scc(C(=O)O)c2n1 [compound 875] | < 50 | 
Cc1cc(-c2cc(Cl)ccc2OCCn2c(C)nc3cc(C(F)(F)F)c(Br)c(C#N)c3c2=O)c2scc(C(=O)O)c2n1 [compound 876] | 50 to 1000 | 73.3
Cc1cc(-c2cc(Cl)ccc2OCCn2c(C)nc3cc(C(F)(F)F)c(N4CCNCC4)c(C#N)c3c2=O)c2sc(C)c(C(=O)O)c2n1 [compound 879] | < 50 | 7.31
Cc1nc2cc(C(F)(F)F)c(C3CCNCC3)cc2c(=O)n1CCOc1ccc(Cl)cc1-c1ccnc2c(C(=O)O)csc12 [compound 880] | 50 to 1000 | 67.9
Cc1nc2cc(C(F)(F)F)c(C3CCN(C)CC3)cc2c(=O)n1CCOc1ccc(Cl)cc1-c1ccnc2c(C(=O)O)csc12 [compound 881] | < 50 | 20.4
Cc1cc(-c2cc(Cl)ccc2OCCn2c(C)nc3cnc(N4CCC(=O)C4)c(C#N)c3c2=O)c2scc(C(=O)O)c2n1 [compound 884] | < 50 | 5.85
Cc1nc(N2CCN(CC(F)(F)F)CC2)c(C#N)c2c(=O)n(CCOc3ccc(Cl)cc3-c3ccnc4c(C(=O)O)csc34)c(C)nc12 [compound 886] | < 50 | 10.5
Cc1sc2c(-c3cc(Cl)ccc3OCCn3c(C)nc4cc(C(F)(F)F)c(C5CCNCC5)c(C#N)c4c3=O)ccnc2c1C(=O)O [compound 887] | < 50 | 20.1
Cc1nc2cnc(C3=CCN(CC(F)(F)F)CC3)c(C#N)c2c(=O)n1CCOc1ccc(Cl)cc1-c1ccnc2c(C(=O)O)csc12 [compound 889] | < 50 | 12.4
Cc1nc2cnc(N3CC4(CN(CC(F)F)C4)C3)c(C#N)c2c(=O)n1CC#Cc1ccc(Cl)cc1-c1ccnc2c(C(=O)O)csc12 [compound 893] | < 50 | 20.1
CCc1cc(-c2cc(Cl)ccc2OCCn2c(C)nc3cc(CN(C)C)c(OC(F)F)c(C#N)c3c2=O)c2scc(C(=O)O)c2n1 [compound 896] |  | 1.57
COc1ncc2nc(C)n(CCOc3ccc(Cl)cc3-c3cc(C)nc4c(C(=O)O)csc34)c(=O)c2c1C#N [compound 897] | < 50 | 1.4
Cc1sc2c(-c3cc(Cl)ccc3OCCn3c(C)nc4cc(C(F)(F)F)c(C)c(C#N)c4c3=O)cn(C)c(=O)c2c1C(=O)O [compound 899] | < 50 | 7.44
Cc1ncc(-c2cc(Cl)ccc2OCCn2c(C)nc3cnc(C4CC4)c(C#N)c3c2=O)c2scc(C(=O)O)c12 [compound 900] | < 50 | 11.2
Cc1cc(C)nc(-c2c(C(F)(F)F)cc3nc(C)n(CCOc4ccc(Cl)cc4-c4cc(C)nc5c(C(=O)O)csc45)c(=O)c3c2C#N)c1 [compound 905] | < 50 | 9.38
Cc1ccc(C)c(-c2c(C(F)(F)F)cc3nc(C)n(CCOc4ccc(Cl)cc4-c4cc(C)nc5c(C(=O)O)csc45)c(=O)c3c2C#N)n1 [compound 906] | < 50 | 17.6
Cc1cc(-c2cc(Cl)ccc2C#CCn2c(C)nc3cc(C(F)(F)F)c(-c4ccncn4)c(C#N)c3c2=O)c2scc(C(=O)O)c2n1 [compound 908] | < 50 | 3.26
Cc1cc(-c2cc(Cl)ccc2OCCn2c(C)nc3cnc(C(C)(F)F)c(C#N)c3c2=O)c2scc(C(=O)O)c2n1 [compound 913] | < 50 | 16.2
Cc1cc(-c2cc(Cl)ccc2OCCn2c(C)nc3cnc(C(F)F)c(C#N)c3c2=O)c2scc(C(=O)O)c2n1 [compound 914] | < 50 | 20.7
Cc1cc(-c2cc(Cl)ccc2OCCn2c(C)nc3cc(Cl)c(N4CCC(F)(F)CC4)c(C#N)c3c2=O)c2scc(C(=O)O)c2n1 [compound 919] | < 50 | 17.7
Cc1cc(-c2cc(Cl)ccc2OCCn2c(C)nc3cc(F)c(-c4cnc(C)s4)c(C#N)c3c2=O)c2scc(C(=O)O)c2n1 [compound 921] | 50 to 1000 | 69.6
CCc1ncc2nc(C)n(CCOc3ccc(Cl)cc3-c3cc(C)nc4c(C(=O)O)csc34)c(=O)c2c1C#N [compound 923] | < 50 | 3.71
Cc1cc(-c2cc(Cl)ccc2OCCn2c(C)nc3c(C)nc(-c4ccccc4C(F)(F)F)c(C#N)c3c2=O)c2scc(C(=O)O)c2n1 [compound 924] | < 50 | 14.3
Cc1cc(-c2cc(Cl)ccc2OCCn2c(C)nc3c(C)nc(-c4cccc(C(F)(F)F)c4)c(C#N)c3c2=O)c2scc(C(=O)O)c2n1 [compound 925] | < 50 | 43.1
Cc1cc(-c2cc(Cl)ccc2OCCn2c(C)nc3c(C)nc(-c4ccc(C(F)(F)F)cc4)c(C#N)c3c2=O)c2scc(C(=O)O)c2n1 [compound 926] | < 50 | 18.3
Cc1cc(-c2cc(Cl)ccc2OCCn2c(C)nc3c(C)nc(-c4cc(F)ccc4C)c(C#N)c3c2=O)c2scc(C(=O)O)c2n1 [compound 927] | < 50 | 6.34
Cc1cc(-c2cc(Cl)ccc2OCCn2c(C)nc3cnc(C4CCCC4(F)F)c(C#N)c3c2=O)c2scc(C(=O)O)c2n1 (stereo not shown) [compound 929] | < 50 | 22.5
Cc1cc(-c2cc(Cl)ccc2OCCn2c(C)nc3cnc(C4CCC(F)(F)C4)c(C#N)c3c2=O)c2scc(C(=O)O)c2n1 (stereo not shown) [compound 930] | < 50 | 6.88

The remaining lines, values ahead:

IC50 [1] [nM] | IC50 [2] [nM] | SMILES
50 to 1000 | 234 | Cc1cc(-c2cc(Cl)ccc2OCCn2c(C)nc3cc(C(F)(F)F)c(C4CCNCC4)cc3c2=O)c2sc(C)c(C(=O)O)c2n1 [compound 877]
< 50 | 9.63 | Cc1cc(-c2cc(Cl)ccc2OCCn2c(C)nc3c(C)nc(N4CCNCC4)c(C#N)c3c2=O)c2scc(C(=O)O)c2n1 [compound 878]
< 50 | 6.62 | Cc1nc2cnc(C3=CCC(F)(F)CC3)c(C#N)c2c(=O)n1CCOc1ccc(Cl)cc1-c1ccnc2c(C(=O)O)csc12 [compound 882]
< 50 | 12.8 | Cc1cc(-c2cc(Cl)ccc2OCCn2c(C)nc3cnc(N4CC[C@@H](O)C4)c(C#N)c3c2=O)c2scc(C(=O)O)c2n1 [compound 883]
< 50 | 40.2 | Cc1nc2cnc(C3=CCN(C)CC3)c(C#N)c2c(=O)n1CCOc1ccc(Cl)cc1-c1ccnc2c(C(=O)O)csc12 [compound 888]
< 50 | 13.7 | Cc1nc2cnc(O)c(C#N)c2c(=O)n1CC#Cc1ccc(Cl)cc1-c1ccnc2c(C(=O)O)csc12 [compound 891]
< 50 | 36 | Cc1nc2cnc(N3CC4(CN(CCF)C4)C3)c(C#N)c2c(=O)n1CC#Cc1ccc(Cl)cc1-c1ccnc2c(C(=O)O)csc12 [compound 892]
< 50 | 21.6 | Cc1nc2cnc(N3CC4(CN(CCOC(F)(F)F)C4)C3)c(C#N)c2c(=O)n1CC#Cc1ccc(Cl)cc1-c1ccnc2c(C(=O)O)csc12 [compound 894]
< 50 | 22.9 | Cc1nc2cnc(N3CCN(CC4CC4)CC3)c(C#N)c2c(=O)n1CC#Cc1ccc(Cl)cc1-c1ccnc2c(C(=O)O)csc12 [compound 895]
< 50 | 45.6 | Cc1cc(-c2cc(Cl)ccc2OCCn2c(C)nc3cc(C(F)(F)F)c(-c4ccncc4C)c(C#N)c3c2=O)c2scc(C(=O)O)c2n1 [compound 901]
< 50 | 14.2 | Cc1cnc(C)c(-c2c(C(F)(F)F)cc3nc(C)n(CCOc4ccc(Cl)cc4-c4cc(C)nc5c(C(=O)O)csc45)c(=O)c3c2C#N)c1 [compound 902]
< 50 | 11.2 | Cc1cc(-c2cc(Cl)ccc2OCCn2c(C)nc3cc(C(F)(F)F)c(-c4cncc(C)c4C)c(C#N)c3c2=O)c2scc(C(=O)O)c2n1 [compound 903]
< 50 | 4.19 | Cc1cc(-c2cc(Cl)ccc2OCCn2c(C)nc3cc(C(F)(F)F)c(-c4ccc(C)c(C)n4)c(C#N)c3c2=O)c2scc(C(=O)O)c2n1 [compound 904]
< 50 | 7.76 | Cc1cc(-c2cc(Cl)ccc2OCCn2c(C)nc3cc(C(F)(F)F)c(-c4cn(C)cn4)c(C#N)c3c2=O)c2scc(C(=O)O)c2n1 [compound 907]
< 50 | 13.2 | Cc1cc(-c2cc(Cl)ccc2OCCn2c(C)nc3cc(C(F)(F)F)c(CC(=O)N(C)C)c(C#N)c3c2=O)c2scc(C(=O)O)c2n1 [compound 909]
< 50 | 17.5 | Cc1cc(-c2cc(Cl)ccc2OCCn2c(C)nc3c(-c4ccccc4)nc(C4CC4)c(C#N)c3c2=O)c2scc(C(=O)O)c2n1 [compound 910]
< 50 | 17.1 | Cc1cc(-c2nc(C)c3nc(C)n(CCOc4ccc(Cl)cc4-c4cc(C)nc5c(C(=O)O)csc45)c(=O)c3c2C#N)ccn1 [compound 911]
< 50 | 8.98 | Cc1cc(-c2cc(Cl)ccc2OCCn2c(C)nc3cnc(C4CCC4)c(C#N)c3c2=O)c2scc(C(=O)O)c2n1 [compound 912]
< 50 | 11 | Cc1nc2cnc(C3CC3)c(C#N)c2c(=O)n1CCOc1ccc(Cl)cc1-c1cc(CF)nc2c(C(=O)O)csc12 [compound 917]
< 50 | 4.37 | Cc1cc(-c2cc(Cl)ccc2OCCn2c(C)nc3cc(Cl)c(N4CCC4(C)C)c(C#N)c3c2=O)c2scc(C(=O)O)c2n1 [compound 918]
< 50 | 5.76 | Cc1cc(-c2cc(Cl)ccc2OCCn2c(C)nc3cc(Cl)c(N4CCCC4(C)C)c(C#N)c3c2=O)c2scc(C(=O)O)c2n1 [compound 920]
50 to 1000 | 89.4 | Cc1nc2cnc(C3CC3)c(C#N)c2c(=O)n1CCOc1ccc(Cl)cc1Sc1nc(C(=O)O)cs1 [compound 922]
< 50 | 38.7 | Cc1cc(-c2cc(Cl)ccc2OCCn2c(C)nc3cnc(C4CC(F)(F)C4)c(C#N)c3c2=O)c2scc(C(=O)O)c2n1 [compound 928]
